PubChem BioAssay AID179 (DTP/NCI, 2004)
Activity calls are given as the source filed them.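 Rule for the calls: active = compounds giving half or more protection of infected cells from virus-caused growth loss, again on retest; inactive = the rest.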

Tested on: CEM cells HIV-1 protection, formazan growth assay
Test: NCI AIDS Antiviral Assay
Details: for IC50: measured here: growth of uninfected CEM cells
Outline: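 Protection of CEM cells against HIV-1 was scored from cell growth (soluble formazan) across five concentrations, with parallel uninfected cells. Lack of protection may reflect toxicity.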

| Structure (SMILES) | EC50 | IC50 | outcome |
| --- | --- | --- | --- |
| C[n+]1c(-c2ccc(/C=N\NC(=O)c3cccc(C(=O)N/N=C/c4ccc(-c5cn6ccccc6[n+]5C)cc4)c3)cc2)cn2ccccc21 | 6.03 µM | 89.1 µM |  |
| O=C(Nc1ccc(Cl)c(Cl)c1)OCC#CCOC(=O)Nc1ccc(Cl)c(Cl)c1 | > 200 µM | 8.91 µM |  |
| CC1=CC2Cc3ccoc3C(C)(C)C2CC1 (stereo unspecified) |  |  | inactive |
| C[C@]12CCC(=O)C[C@H]1CCC(O)[C@@H]2Br (stereo partly specified) |  |  | inactive |
| CCOP(=O)(OCC)O/C(C)=C\C(=O)OC | > 501 µM | > 501 µM |  |
| O=C(NCCc1ccccc1)/C(=C\c1ccc(Cl)cc1Cl)NC(=O)c1ccccc1 | > 200 µM | > 200 µM |  |
| COC(=O)C(=O)C(/C=N/C(=S)N=Nc1c(O)[nH]c2ccccc12)=C(\O)c1c(C)[nH]c2ccccc12 | 26.9 µM | 105 µM |  |
| N#CCC(=O)N1CCCOCCC1 | > 1380 µM | > 1380 µM |  |
| CC(=O)OC(OC(C)=O)c1ccc2ccc3cccc4ccc1c2c34 | > 200 µM | 34.7 µM |  |
| CC(=O)/C=C/c1cc([N+](=O)[O-])ccc1O | > 200 µM | 36.3 µM |  |
| COC(=O)C(=O)/C(=C\N1C(=O)CC(=O)NC1=S)C(=O)c1ccc([N+](=O)[O-])cc1 | > 200 µM | > 200 µM |  |
| CCCCN(CCCC)c1ccc(/C=C2/C=Cc3ccccc32)cc1 | > 11.2 µM | > 11.2 µM |  |
| CCCCCCCCCCCCCCCC(=O)Nc1ccn(C2CCC(COP(=O)(O)OCC(COP(=O)(O)OCC3OC(n4cc(C)c(=O)[nH]c4=O)CC3N=[N+]=[N-])OC(=O)CCCCCCCCCCCCCCC)O2)c(=O)n1 (stereo unspecified) | 0.0182 µM | 50.1 µM |  |
| CC[N+](C)(C)C1=C([O-])C(F)(F)C1=O | > 200 µM | > 200 µM |  |
| O=C(O)c1ccc(S(=O)(=O)c2ccc(C(=O)O)c(C(=O)O)c2)cc1C(=O)O | > 200 µM | 191 µM |  |
| O=c1c2cc(-c3ccccc3)sc2nc2n1N=C(c1ccc(Cl)cc1)CS2 | > 200 µM | > 200 µM |  |
| Cc1nnc(N/N=C(/C(=O)C(C#N)c2ccc(Cl)cc2)C(C#N)c2ccc(Cl)cc2)n1N (stereo unspecified) | > 537 µM | 91.2 µM |  |
| COc1ccc(CCC2NCCc3cc(OC)c(OC)cc32)cc1 (stereo unspecified) | > 692 µM | 102 µM |  |
| O=[N+]([O-])c1cc(Cl)ccc1Sc1ccc(Cl)cc1[N+](=O)[O-] | > 129 µM | > 129 µM |  |
| Nc1cnc(N2CCN(c3ncc(N)cc3N)CC2)c(N)c1 | > 95.5 µM | 77.6 µM |  |
| O=C(NC1CCCCC1)c1n[nH]nc1Cl | > 200 µM | > 200 µM |  |
| O=C1/C(=C/c2ccc(O)cc2)CCCC1CN1CCCCC1 (stereo unspecified) | > 2 µM | 1.86 µM |  |

| Structure (SMILES) | EC50 | IC50 | outcome |
| --- | --- | --- | --- |
| CC(C)COC(=O)NC1C(=O)N2C1SC(C)(C)C2C(=O)O (stereo unspecified) (tested in a mixture with another compound) | 87.1 µM | > 200 µM |  |
| CN(C)CCNc1ncnc2nc(-c3ccc4ccccc4c3)[nH]c12 | > 200 µM | > 200 µM |  |
| C=CCNc1nc2c(N)ncnc2s1 | > 200 µM | > 200 µM |  |
| COC(C(O)c1ccc2c(c1)OCO2)P(=O)(c1ccccc1)c1ccccc1 (stereo unspecified) |  |  | inactive |
| NC(CS)=NCCc1nc2ccccc2[nH]1 | > 200 µM | 110 µM |  |
| c1ccc(CN[C@]23C4C5CC6C7C5C2C7[C@@](NCc2ccccc2)(C64)N3Cc2ccccc2)cc1 (stereo partly specified) | > 200 µM | 105 µM |  |
| NS(=O)(=O)c1cc[c]([Sb](=[O])([OH])[OH])cc1 | > 200 µM | > 200 µM |  |
| COC[C@@H](N=Cc1ccc(OC)cc1)C(C)C | > 200 µM | > 200 µM |  |
| O=C(O)c1cc2cc(Br)ccc2cc1O | > 200 µM | 85.1 µM |  |
| Cc1[nH]c2ncn(N)c(=N)c2c1Cc1ccccc1 | > 200 µM | > 200 µM |  |
| O=C1CC2CC(CC3(CO3)C2)C1F (stereo unspecified) | > 200 µM | > 200 µM |  |
| CC1C2=C(CCCC2=O)N(c2ccc(Cl)cc2)C2=C1C(=O)CCC2 | > 100 µM | > 100 µM |  |
| COc1cc(C2c3cc4c(c(O)c3C[C@H]3COC(=O)[C@@H]23)OCO4)cc(OC)c1OC (stereo partly specified) | > 200 µM | 0.468 µM |  |
| NC(=O)CCC(NS(=O)(=O)c1ccc(NC(=O)c2ccccc2)cc1)C(=O)O (stereo unspecified) | > 617 µM | > 617 µM |  |
| COc1ccc(-c2cc(=O)c3cc(Cl)cc(Cl)c3o2)cc1OC | > 100 µM | > 100 µM |  |
| CSC1(CC(=O)N(C)C)C(=O)Nc2ccccc21 (stereo unspecified) | > 200 µM | > 200 µM |  |
| CC(=O)OCC1OC(n2c(-c3ccc(C)cc3)cc(-c3ccco3)c(C#N)c2=S)C(OC(C)=O)C(OC(C)=O)C1OC(C)=O (stereo unspecified) | > 200 µM | 155 µM |  |
| Cc1c(C(=O)C/C(=N/NC(=O)c2ccccc2)C(=O)Nc2ccc(Cl)cc2)[n+](=O)c2ccccc2n1[O-] | > 34.7 µM | 20.4 µM |  |
| COc1ccc2c(c1)C(=O)/C(=C/c1ccccc1)C2 | > 200 µM | 47.9 µM |  |
| Cc1cc2c3ccccc3n(C)c2c2c1C(=O)C=CC2=O | > 69.2 µM | 5.89 µM |  |
| Cn1nc(-c2ccccc2)c2c(/C=C/c3ccc(Cl)cc3)onc2c1=O | > 14.5 µM | > 14.5 µM |  |
| c1ccc2c(c1)nn1c3ccc4nonc4c3[n-][n+]21 |  |  | inactive |

| Structure (SMILES) | EC50 | IC50 | outcome |
| --- | --- | --- | --- |
| Cc1cn(C2CC(O[Si](C)(C)C(C)(C)C)C(CN(O)C(N)=O)O2)c(=O)[nH]c1=O (stereo unspecified) | > 200 µM | > 200 µM |  |
| CCOC(=O)C1C(c2ccc(Br)cc2)N(Cc2ccccc2)C(c2ccc(Br)cc2)C(C(=O)OC)S1(=O)=O (stereo unspecified) | > 2.19 µM | > 2.19 µM |  |
| CN(C)C(=O)C1(c2ccc(Cl)cc2)CCN(CCCC(=O)c2ccc(F)cc2)CC1 | > 79.4 µM | 69.2 µM |  |
| O=S(=O)(O)c1cc2ccc1/C=C\c1ccc(cc1S(=O)(=O)O)N=Nc1ccc(c(S(=O)(=O)O)c1)/C=C\c1ccc(cc1S(=O)(=O)O)N=N2 |  |  | active |
| CC(=O)OC(OC(C)=O)c1c2ccccc2cc2ccccc12 | > 200 µM | 9.77 µM |  |
| CCc1cccc(C)c1NC(=O)C1=C(C)NC(C)=C(C(=O)Nc2c(C)cccc2CC)C1c1ccc2c(c1)OCO2 | > 24.5 µM | > 24.5 µM |  |
| O=C(CC1C(=O)c2ccccc2C1=C1C(=O)c2ccccc2C1=O)c1ccccc1 (stereo unspecified) | > 9.55 µM | 5.5 µM |  |
| CCC1OC2CS(=O)(=O)CC2O1 (stereo unspecified) | > 1290 µM | > 1290 µM |  |
| CCOC(=O)/C(Br)=C1\OC(=O)c2ccccc2-c2ccccc21 | > 19.5 µM | > 19.5 µM |  |
| CC(NC(=O)/C(=C/c1ccccc1O)NC(=O)c1ccccc1)C(=O)O (stereo unspecified) | > 200 µM | > 200 µM |  |
| O=c1[nH]c(=O)n(C2CC(O)C(CO)O2)cc1OS(=O)(=O)C(F)(F)F (stereo unspecified) | > 661 µM | 9.77 µM |  |
| COc1cc(OC)nc(Nc2c(C#N)c3nc4ccccc4n3c3ccccc23)n1 | > 100 µM | > 100 µM |  |
| CCN(CC)CCOC(=O)c1ccc(N)cc1 | > 200 µM | > 200 µM |  |
| O=C1CCC2(c3ccc(Cl)cc3)Nc3ncccc3N12 (stereo unspecified) | > 126 µM | 97.7 µM |  |
| CC(=O)/C(=C/n1c(=S)[nH]c2ccc([N+](=O)[O-])cc21)C(=O)Nc1ccc(Cl)cc1 | > 100 µM | > 100 µM |  |
| O=S(=O)(c1ccccc1)C1CC(c2nc3ccccc3[nH]2)=NO1 (stereo unspecified) | > 200 µM | 132 µM |  |
| O=C(Cn1c2ccc(Br)cc2c2nc3ccccc3nc21)NNC(=S)NC1CCCCC1 | > 200 µM | 36.3 µM |  |
| COC(=O)C(Cn1cnc2c(N)ncnc21)P(=O)(OC)OC (stereo unspecified) | > 759 µM | 39.8 µM |  |
| C/C(=N\[N+](C)(C)C)c1ccc(C)c(C)c1 | > 200 µM | 102 µM |  |
| COc1ccc(-c2cc(=O)c3c(O)cc(O)cc3o2)cc1OC | > 70.8 µM | > 70.8 µM |  |
| C=C[C@@H](C)[C@@H](O)c1c(O)c2c(c3c(CCC)cc(=O)oc13)OC(C)(C)C=C2 | > 200 µM | 10.7 µM |  |
| CCC(=O)CCCC=C(c1cc(Cl)c(OC)c(C(=O)OC)c1)c1cc(Cl)c(OC)c(C(=O)OC)c1 | 1.45 µM | 40.7 µM |  |

| Structure (SMILES) | EC50 | IC50 | outcome |
| --- | --- | --- | --- |
| C[S+]1Cc2nc3ccccc3n2C1c1c(F)cccc1F (stereo unspecified) | > 178 µM | 79.4 µM |  |
| COc1ccc(-c2cc3ccccc3oc2=O)cc1OC | > 200 µM | 41.7 µM |  |
| CSc1c(C#N)c(=O)n(N)c2c1c(C)nn2-c1ccccc1 | > 200 µM | 26.9 µM |  |
| COc1cc(C[C@@H](C)N)cc(OC)c1 | > 200 µM | > 200 µM |  |
| COc1ccc([C@@H]2CC(=O)NCCCNCCCCNCCCN2)cc1 | > 200 µM | 123 µM |  |
| CC(=O)C(=Cc1cccc(Cl)c1)C(C)=O | > 162 µM | 26.3 µM |  |
| Cc1cc(NS(=O)(=O)c2ccc(NO)cc2)no1 | > 70.8 µM | 15.8 µM |  |
| NNC(=O)C(CC(C(=O)NN)C(=O)NN)C(=O)NN | > 912 µM | 66.1 µM |  |
| CCCCCCCCCCCc1c2oc3ccc(C)cc3[nH]c-2cc(=O)c1=O | > 4.68 µM | > 4.68 µM |  |
| Cc1ccc(S(=O)(=O)c2c(O)c3ccc(O)c(C)c3oc2=O)cc1 | > 200 µM | > 200 µM |  |
| COc1ccc(CNc2cc(=O)n(C)c(=O)[nH]2)cc1 | > 200 µM | > 200 µM |  |
| CC(=O)C1=CSC2[C@H](NC(=O)Cc3ccccc3)C(=O)N2C1C(=O)OC(c1ccccc1)c1ccccc1 (stereo partly specified) | > 25.7 µM | 15.8 µM |  |
| CC(C)C1CC[C@H](C)C[C@@H]1OC(=O)C(C(=O)O[C@H]1C[C@@H](C)CCC1C(C)C)C(O)[C@@H]1OC(C)(C)O[C@H]1C1COC(C)(C)O1 (stereo partly specified) | > 200 µM | 7.41 µM |  |
| O=C(c1ccccc1)N1OC2C=CC1CC2 (stereo unspecified) | > 1150 µM | > 1150 µM |  |
| O=C(O)c1cccc(/C=C/c2ccc(N=Nc3cc(S(=O)(=O)O)c4cccnc4c3O)cc2C(=O)O)c1 | 166 µM | > 200 µM |  |
| COc1ccc(NC(=S)N=Nc2c(O)[nH]c3ccccc23)cc1 | > 200 µM |  |  |
| N#C/C(=C\c1ccccc1)S(=O)(=O)/C(C#N)=C/c1ccc(O)c(O)c1 | > 200 µM | 29.5 µM |  |
| CCN(CC)CCC(=O)NC1c2ccc(Cl)cc2Oc2c(C)cccc21 (stereo unspecified) | > 200 µM | 9.55 µM |  |
| N#CC12COC3(CCCCC3C1(C#N)C#N)OC2=N (stereo unspecified) | > 200 µM | 3.98 µM |  |
| CC1Cn2c(=S)[nH]c3cccc(c32)NC1=O (stereo unspecified) | > 200 µM | > 200 µM |  |
